# Structures can show the parent of a compound that is named as a salt.
# Tests used:
# human CYP17 = target: T1, human CYP17 (Homo sapiens, UniProt P05093); assay: Percent inhibition of CYP17 (membrane fraction of E. coli pJL17/OR); format: biochemical; conditions: E. coli which expresses human CYP17; 5 mg/ml protein; progesterone substrate 2.5 μM; inhibitor 2.5 μM; read-out: % Inhibition human CYP17
# T1 construct: made in house; host or cells: E. coli pJL17/OR (membrane fraction)
# T1 sequence (P05093 1-508): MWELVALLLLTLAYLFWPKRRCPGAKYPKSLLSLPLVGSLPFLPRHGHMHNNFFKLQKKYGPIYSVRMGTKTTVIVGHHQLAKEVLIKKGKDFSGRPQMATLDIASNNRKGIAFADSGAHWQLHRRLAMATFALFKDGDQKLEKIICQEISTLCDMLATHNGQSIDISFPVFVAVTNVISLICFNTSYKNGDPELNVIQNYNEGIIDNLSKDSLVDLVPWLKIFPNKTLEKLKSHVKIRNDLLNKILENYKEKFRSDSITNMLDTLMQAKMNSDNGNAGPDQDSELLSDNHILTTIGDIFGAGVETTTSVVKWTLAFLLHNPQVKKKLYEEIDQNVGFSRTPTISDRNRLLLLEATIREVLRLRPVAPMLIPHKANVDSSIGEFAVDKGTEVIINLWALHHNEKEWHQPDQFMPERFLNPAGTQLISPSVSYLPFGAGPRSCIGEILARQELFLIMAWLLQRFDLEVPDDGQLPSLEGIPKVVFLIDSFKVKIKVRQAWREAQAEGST
# How it was run: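 Membranes were isolated from E. coli pJL17/OR, which coexpresses human CYP17 with rat NADPH-P450-reductase, by lysozyme treatment, sonication and centrifugation at 50,000 g, then stored at −70° C. Reactions were started with diluted membrane suspension (0.8 to 1 mg of protein per ml), incubated at 37° C for 30 min, extracted with EtOAc and analyzed by HPLC. Inhibition was calculated from reduced substrate conversion versus DMSO controls.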
# human CYP11B1 = target: T2, human CYP11B1 (Homo sapiens, UniProt P15538); assay: V79 MZh 11B1 cells inhibition test; format: cell-based; conditions: hamster fibroblasts which express human CYP11B1; deoxycorticosterone substrate 100 nM; read-out: IC50 V79 11B1 hCYP11B1
# T2 construct: expressed in transfected cells; host or cells: V79 MZh11B1 (Chinese hamster lung fibroblasts)
# T2 sequence (P15538 25-503): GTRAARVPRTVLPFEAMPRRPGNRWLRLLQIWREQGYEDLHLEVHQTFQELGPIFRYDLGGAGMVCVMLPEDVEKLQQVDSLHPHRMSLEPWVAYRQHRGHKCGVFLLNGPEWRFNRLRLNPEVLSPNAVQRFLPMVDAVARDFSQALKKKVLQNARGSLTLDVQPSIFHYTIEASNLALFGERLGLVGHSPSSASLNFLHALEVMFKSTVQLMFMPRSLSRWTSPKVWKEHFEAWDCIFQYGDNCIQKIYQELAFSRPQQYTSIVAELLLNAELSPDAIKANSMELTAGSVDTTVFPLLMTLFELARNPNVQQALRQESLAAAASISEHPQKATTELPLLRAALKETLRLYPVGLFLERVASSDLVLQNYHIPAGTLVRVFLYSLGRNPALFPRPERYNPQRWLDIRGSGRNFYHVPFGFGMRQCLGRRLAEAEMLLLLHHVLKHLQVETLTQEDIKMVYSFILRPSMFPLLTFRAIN
# Protocol: Both cell lines were cultured in DMEM^+ containing […] and the antibiotics penicillin and streptomycin (10%) for protection from bacterial contamination. The cells were passaged every 2-3 days after treatment with trypsin/EDTA because the doubling rate was 1-2 days depending on the number of cells. […] When there was further need, freshly thawed cells were employed.
# Thereafter, the plate was stored at 37° C. and […] in a CO2 incubator. […] Controls without inhibitor were treated in the same way. The enzyme reactions were quenched by extracting the supernatant with 500 μl of EtOAc. The samples were centrifuged (10,000 g, 2 min), the solvent was removed and evaporated.
# It was calculated by determining the percent inhibition for at least 3 different inhibitor concentrations, which must all be in the linear range of the sigmoidal IC50 curve (log C/% inhibition).
# The calculation was effected by linear regression. The values determined were used only if they formed a straight line with a reliability of […].
# The plate was developed twice with the mobile solvent chloroform:methanol:water (300:20:1). Unlabeled 11-deoxycorticosterone and corticosterone were applied as a reference for the CYP11B1 reaction. For the CYP11B2 reaction, 11-deoxycorticosterone, corticosterone, 18-hydroxycorticosterone and aldosterone were used as references. The detection of the unlabeled references was effected at 260 nm. Subsequently, imaging plates (BAS MS2340, for ^14C samples, Raytest, Straubenhardt, Germany) were exposed to the HPTLC plates for 48 h. The imaging plates were scanned with the phosphoimager system Fuji FLA 3000 (Raytest, Straubenhardt, Germany), and the steroids were quantified.
SMILES,inhibition at 2.5 µM (human CYP17) [%],melting point [°C],IC50 (human CYP11B1) [nM]
"C(=C1/CCCc2ccccc21)/c1cccnc1.Cl [Compound 3a, 3-[(E)-3,4-Dihydronaphthalene-1(2H)-ylidenemethyl]pyridine Hydrochloride]",9,209,715
"C(=C1\CCCc2ccccc21)/c1cccnc1.Cl [Compound 3b, 3-[(Z)-3,4-Dihydronaphthalene-1(2H)-ylidenemethyl]pyridine Hydrochloride]",24,206,1420
"COc1ccc2c(c1)CCC/C2=C/c1cccnc1.Cl [Compound 13b, 3-[(Z)-(6-Methoxy-3,4-dihydronaphthalene-1(2H)-ylidene)methyl]pyridine Hydrochloride]",17,151,206
"Clc1cccc2c1CC/C2=C\c1cccnc1 [Compound 25a, 3-[(E)-(4-Chloro-2,3-dihydro-1H-indane-1-ylidene)methyl]pyridine Hydrochloride]",14,,304
"Clc1cccc2c1CC/C2=C/c1cccnc1 [Compound 25b, 3-[(Z)-(4-Chloro-2,3-dihydro-1H-indane-1-ylidene)methyl]pyridine Hydrochloride]",32,,657
"COc1cccc2c1/C(=C/c1cccnc1)CC2 [Compound 26a, 3-[(E)-(7-Methoxy-2,3-dihydro-1H-indane-1-ylidene)methyl]pyridine Hydrochloride]",5,,955
"Fc1ccc2c(c1)CC/C2=C\c1cncnc1 [Compound 28a, 5-[(E)-(5-Fluoro-2,3-dihydro-1H-indane-1-ylidene)methyl]pyrimidine Hydrochloride]",6,,3180
"Fc1ccc2c(c1)CC/C2=C\c1cccc2cnccc12 [Compound 30a, 5-[(E)-(5-Fluoro-2,3-dihydro-1H-indane-1-ylidene)methyl]isoquinoline Hydrochloride]",57,,1130
"Fc1ccc2c(c1)CC/C2=C/c1cccc2cnccc12 [Compound 30b, 5-[(Z)-(5-Fluoro-2,3-dihydro-1H-indane-1-ylidene)methyl]isoquinoline Hydrochloride]",65,,374
"C(=C1/CCCc2ccccc21)/c1cnc[nH]1 [Compound 41a, 5-[(E)-3,4-Dihydronaphth-1(2H)-ylidenemethyl]-1H-imidazole]",13,136 to 138,
"C(=C1/CCc2ccccc21)/c1cnc[nH]1 [Compound 42a, 5-[(E)-2,3-Dihydro-1H-indane-1-ylidenemethyl]-1H-imidazole]",11,,25.9
"C(=C1\CCc2ccccc21)/c1cnc[nH]1 [Compound 42b, 5-[(Z)-2,3-Dihydro-1H-ind-1-ylidenemethyl]-1H-imidazolium oxalate]",1,,6.1
"Cl.Clc1ccc2c(c1)CC/C2=C\c1cnc[nH]1 [Compound 48a, 5-[(E)-(5-Chloro-2,3-dihydro-1H-indene-1-ylidene)methyl]-1H-imidazolium chloride]",37,238,
"Brc1ccc2c(c1)CC/C2=C\c1cnc[nH]1.Cl [Compound 49a, 5-[(E)-(5-Bromo-2,3-dihydro-1H-indene-1-ylidene)methyl]-1H-imidazolium chloride]",13,228,

# From US20090105278A1, “Selective inhibitors of human corticosteroid syntheses” (Universitat Des Saarlandes, priority 2004, published 2009)
